From paper PMC11882969 (Nature Communications, 2025)
Converted amounts (≈) assume the structure as drawn. “And” between values parts separate entries of the source, which are not always exact repeats. Identical values can stand only once.

Experiments:
hCB1 [1] = target: T1, hCB1 (Homo sapiens, UniProt P21554); assay: Radioligand competition binding at hCB1; parameters: host or cells: HEK293SL cells, transient PEI transfection; details: for radioligand binding, competition curve point (normalized): log[drug]
[2] = target: T2, CB1R with G protein (Gi1-3, Go) (Homo sapiens, UniProt P21554); assay: GTP turnover assay (GTPase-Glo); format: biochemical; details: replicates, sheet FigS3c
T2 construct: a N-terminal FLAG tag and C-terminal histidine tag was added to human full-length CB1; FLAG (N); histidine tag (C); made in house; host or cells: CB1R: Spodoptera frugiperda Sf9; G proteins: Trichoplusia ni Hi5
Method: Analysis of GTP turnover was performed by using a modified protocol of the GTPase-Glo^TM assay (Promega) described previously. Ligand-bound (10 μM ligand incubated for one hour at room temperature) or apo CB1R (1 μM) was mixed with G protein (1 μM) in 20 mM HEPES, pH 7.5, 50 mM NaCl, 0.01% L-MNG/0.001% CHS, 100 μM TCEP, 10 μM GDP and 10 μM GTP and incubated at room temperature. GTPase-Glo-reagent was added to the sample after incubation for 60 min (Gi1-3) and 20 min for (Go). Luminescence was measured after the addition of detection reagent and incubation for 10 min at room temperature using a SpectraMax Paradigm plate reader.

physchem = details: phosphate-buffered saline, 25 °C, pH 7.4, aqueous buffer, kinetic from dmso stock
mice [3] = assay: Body temperature by telemetric probe; format: in vivo, mouse; details: 0.2 mg/kg; for Body temperature (pre-injection = 100): individual animals, sheet Figure7a
Method: Body temperature (BT) was measured using a telemetric probe device (HD-X10; Data Science International). Briefly, under anesthesia, the probe device was placed in the mouse abdomen and a subcutaneous tunnel was created from the neck to the abdominal skin, through which a catheter (connected to the probe) was pulled and then inserted into the left carotid artery. Three weeks later, the implanted mice were singly housed in a cage that was placed on top of the DSI receiver (for probe signal detection). We monitored BT continuously over 2 h, in the following manner: 30 min (for baseline), 30 min after injection of the vehicle and then for 1 h after injection of the compound. Data were acquired using the Ponemah Telemetry acquisition software (DSI) and percent changes were presented relative to each mouse’s baseline.

mice [4] = assay: Open field test; format: in vivo, mouse
Method: Thirty min after i.p. injection, mice were placed in the center of a round open-field (2 feet diameter) and their exploratory behavior recorded over the next 15 min. Distance traveled was used to represent open field behavior.

mice [5] = assay: CFA inflammatory pain model; format: in vivo, mouse
Method: The CFA model of chronic inflammation was induced as described previously. Briefly, CFA (Sigma) was diluted 1:1 with saline and vortexed for 30 min. When fully suspended, we injected 20 μL of CFA into one hindpaw. Heat thresholds were measured before the injection (baseline) and 3 days after the injection using the Hargreaves test.

mice [6] = assay: Formalin test; format: in vivo, mouse; details: for formalin test response per time bin (Figure5c), individual animals: 0.2 mg/kg
Method: Thirty min after an i.p. injection of the compounds, mice received an intraplantar injection of a 20μL solution containing 2% formalin (Acros Organics) and we recorded the time mice spent licking/biting/guarding (nocifensive behaviors) the injected hindpaw over the next 60 min.

in vitro [7] = details: mouse, plasma
Method: The reactions were stopped by adding 240 μL 90% acetonitrile containing internal standard with subsequent plasma proteins sedimentation by centrifuging at 5796 g for 5 min. Supernatants were analyzed by the HPLC system coupled with a tandem mass spectrometer. The percentage of the test compounds remaining after incubation in plasma and their half-lives (T1/2) were calculated.

in vitro [8] = details: mouse, pH 7.4
Method: Compounds were added to one chamber and the same volume of PBS buffer pH 7.4 to the other chamber. A standard solution was created by mixing an aliquot of spiked plasma with blank buffer without dialysis. […] The stability samples were immediately diluted with acetonitrile and stored at 4 °C until LC-MS/MS analysis. All samples were diluted 5-fold with 90% acetonitrile with internal standard with subsequent plasma proteins sedimentation by centrifuging at 5,796 g for 5 min. Supernatants were analyzed using HPLC system coupled with tandem mass spectrometer. The percentage of plasma protein-bound compound, recovery and stability were calculated using following equations:7 ProteinBinding=1−arearatioinbuffer/arearatioinplasma×100 8 Recovery=arearatioinbuffer+arearatioinplasma/arearatioinstabilitysample×100 9 Stability=arearatioinrecoverysample/arearatioinstabilitysample×100

P-gp (human MDR1) = assay: in vitro; details: dog, MDCK-MDR1, pH 7.4
in vitro [9] = details: mouse, microsomes, pH 7.4
Method: Microsomal incubations were carried out in 96-well plates in 5 aliquots of 30 μL each (one for each time point). […] In the control reactions, the NADPH-cofactor system was substituted with phosphate buffer. […] Five time points over 40 min were analyzed. The reactions were stopped by adding 5 volumes of acetonitrile with internal standard to incubation aliquots, followed by protein sedimentation by centrifuging at 4869 g for 5 min. Each reaction was performed in duplicates. Supernatants were analyzed using the HPLC system coupled with a tandem mass spectrometer. The elimination constant (kel), half-life (T1/2), and intrinsic clearance (Clint) were determined in a plot of ln(AUC) versus time, using linear regression analysis.

mice [10] = assay: Conditioned place preference; format: in vivo, mouse
Method: Briefly, mice were first habituated to the test apparatus, twice, and their preference for each chamber recorded for 30 min (Pretest). Two conditioning days followed in which mice received the vehicle control or the compound, and 30 min later restricted for 30 min in the preferred or non-preferred chamber, respectively. On day 5 (Test day), mice were allowed to roam freely between the 3 chambers of the apparatus and their preference for each chamber recorded for 30 min. To calculate the CPP score, we subtracted the time spent in each chamber of the box on the Pretest day from that of the Test day (CPP score = Test - Pretest).

hCB1 [11] = target: T1, hCB1; assay: Cerep HTRF cAMP inhibition assay, hCB1 CHO-K1; format: cell-based; parameters: host or cells: HEK293SL cells, transient PEI transfection
Method: The hCB1/2 CHO-K1 cells (ATCC: CCL-61) are suspended in HBSS buffer (Invitrogen) complemented with 20 mM HEPES (pH 7.4), then distributed in microplates at a density of 5.103 cells/well in the presence of either of the following: HBSS (basal control), the reference agonist (stimulated control) or the test compounds. […] Following 30 min incubation at 37 °C, the cells are lysed, and the fluorescence acceptor (D2-labeled cAMP) and fluorescence donor (anti-cAMP antibody labeled with europium cryptate) are added. […] Each measurement was done in triplicate.

[12] = first block, G protein not printed (Gi2, Gi3, Goa follow)

T2 sequence (P21554 whole entry): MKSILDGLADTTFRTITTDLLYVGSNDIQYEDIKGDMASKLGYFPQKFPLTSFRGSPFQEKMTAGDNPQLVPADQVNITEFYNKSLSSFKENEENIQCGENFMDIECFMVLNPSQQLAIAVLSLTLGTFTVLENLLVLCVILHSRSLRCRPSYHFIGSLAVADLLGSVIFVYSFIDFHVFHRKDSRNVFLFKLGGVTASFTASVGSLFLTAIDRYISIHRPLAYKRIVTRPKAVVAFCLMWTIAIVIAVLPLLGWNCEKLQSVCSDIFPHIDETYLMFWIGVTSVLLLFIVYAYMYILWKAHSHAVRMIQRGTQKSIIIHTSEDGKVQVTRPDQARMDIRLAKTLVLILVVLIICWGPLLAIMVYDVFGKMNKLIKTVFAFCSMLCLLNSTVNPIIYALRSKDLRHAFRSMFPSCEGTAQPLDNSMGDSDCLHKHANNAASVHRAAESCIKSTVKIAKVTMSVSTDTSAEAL
T1 sequence (P21554 whole entry): as above

SMILES: Cc1cc(C(=O)NC(C)(c2ccco2)c2ccco2)nn1-c1cccc(C(F)(F)F)c1 [‘4936]
- Ki (hCB1 [1]): 3.98 nM
- radioligand binding, competition curve point (normalized) (hCB1 [1]; M = -5.643, replicate columns): -14.5136 and 0.4673
- radioligand binding, competition curve point (normalized) (hCB1 [1]; M = -6.357, replicate columns): -3.19 and 6.075
- radioligand binding, competition curve point (normalized) (hCB1 [1]; M = -7.07, replicate columns): 20.4147 and 9.813
- radioligand binding, competition curve point (normalized) (hCB1 [1]; M = -7.783, replicate columns): 36.2041 and 27.8816
- radioligand binding, competition curve point (normalized) (hCB1 [1]; M = -8.496, replicate columns): 40.1914 and 64.2523
- radioligand binding, competition curve point (normalized) (hCB1 [1]; M = -9.21, replicate columns): 71.0526 and 82.243
- radioligand binding, competition curve point (normalized) (hCB1 [1]; M = -9.923, replicate columns): 77.9904 and 73.053
- radioligand binding, competition curve point (normalized) (hCB1 [1]; M = -10.636, replicate columns): 83.8915 and 104.439

SMILES: COC(=O)[C@](C)(NC(=O)c1cc(C)n(-c2cccc(C(F)(F)F)c2)n1)c1cccs1 [‘8690]
- GTP turnover, normalised (FUB about 100) ([2]; Gi2): 16.9643 and 39.0749 and 37.2739 and 44.0104 and 47.8141 and 43.1917
- GTP turnover, normalised (FUB about 100) ([2]; Gi3): 40.931 and 39.8765 and 45.2237 and 46.1547 and 48.6065 and 44.9238
- GTP turnover, normalised (FUB about 100) ([2]; Goa): 61.5575 and 70.4664 and 69.7244 and 64.4739 and 72.6259 and 67.4132
- GTP turnover, normalised (FUB about 100) [2, 12]: 38.198 and 43.143 and 41.7234 and 41.9514 and 39.8163 and 42.5776

SMILES: COC(=O)[C@@](C)(NC(=O)c1cc(C)n(-c2cccc(C(F)(F)F)c2)n1)c1cccs1 [‘1350]
- GTP turnover, normalised (FUB about 100) ([2]; Gi2): 96.8998 and 91.3876 and 87.4526 and 89.8295 and 89.8906 and 82.6279
- GTP turnover, normalised (FUB about 100) ([2]; Gi3): 81.2301 and 82.2228 and 81.0231 and 89.3188 and 82.6055 and 85.3572
- GTP turnover, normalised (FUB about 100) ([2]; Goa): 86.5272 and 96.4818 and 93.6031 and 96.9291 and 99.611 and 94.5957
- GTP turnover, normalised (FUB about 100) [2, 12]: 83.1663 and 86.2553 and 85.2024 and 81.617 and 83.7026 and 83.2158
- solubility at 2 h (physchem): 23 µM (≈ 10.1 µg/mL)
- hypothermia (mice [3]; vs baseline and vehicle): increased hypothermia compared to CP-55,940
- Body temperature (pre-injection = 100) (mice [3]; time 10): 97.5 and 99.4 (2×)
- Body temperature (pre-injection = 100) (mice [3]; time 20): 90.5 and 93.9 and 97
- Body temperature (pre-injection = 100) (mice [3]; time 30): 83.8 and 88.4 and 92.4
- Body temperature (pre-injection = 100) (mice [3]; time 40): 79.1 and 83.4 and 87.4
- Body temperature (pre-injection = 100) (mice [3]; time 50): 78.7 and 80.2 and 84.2
- Body temperature (pre-injection = 100) (mice [3]; time 60): 79.9 and 78.4 and 83.6
- Body temperature (pre-injection = 100) (mice [3]; time 70): 81.4 and 78.1 and 83.5
- Body temperature (pre-injection = 100) (mice [3]; time 80): 82.4 and 78.5 and 83.9
- Body temperature (pre-injection = 100) (mice [3]; time 90): 82.1 and 79.5 and 83.5
- open field locomotion (Figure6a), individual animals (mice [4]; Dose 0.2 mg/kg): 12688.4 and 110206 and 39857.9 and 128163 and 83978.8
- open field locomotion (Figure6a), individual animals (mice [4]; Dose 0.5 mg/kg): 61622.6 and 27571.5 and 19916.8 and 94738.4 and 50932.2
- dose showing locomotor deficits, open field (mice [4]; i.p.): 0.2 mg/kg
- Ki (hCB1 [1]): 0.32 nM
- radioligand binding, competition curve point (normalized) (hCB1 [1]; M = -6.64345, replicate columns): 11.7845 and 1.336
- radioligand binding, competition curve point (normalized) (hCB1 [1]; M = -7.35666, replicate columns): 11.2233 and 0.827
- radioligand binding, competition curve point (normalized) (hCB1 [1]; M = -8.06987, replicate columns): 12.4018 and 13.4224
- radioligand binding, competition curve point (normalized) (hCB1 [1]; M = -8.78308, replicate columns): 40.0112 and 26.5903
- radioligand binding, competition curve point (normalized) (hCB1 [1]; M = -9.49629, replicate columns): 69.0236 and 54.2939
- radioligand binding, competition curve point (normalized) (hCB1 [1]; M = -10.2095, replicate columns): 97.7273 and 72.2328
- radioligand binding, competition curve point (normalized) (hCB1 [1]; M = -11.9245, replicate columns): 99.9439 and 88.4224
- radioligand binding, competition curve point (normalized) (hCB1 [1]; M = -13.6383, replicate columns): 102.525 and 91.0941
- effect on paw withdrawal latency after CFA (mice [5]; 0.2 mg/kg i.p.): increasing paw withdrawal latencies to well-above pre-CFA baseline thresholds
- CFA inflammatory pain response normalised to baseline (Figure5a), individual animals (mice [5]; 0.2 mg/kg, CFA-treated mice): 134.669 and 178.501 and 55.3352 and 183.627 and 40.7039 and 122.724 and 119
- effect on formalin nocifensive behaviors (mice [6]; 0.2 mg/kg i.p., 60 min): profoundly decreased the duration of both phase 1 and phase 2 nocifensive behaviors
- formalin test response per time bin (Figure5c), individual animals (mice [6]; Time 0 min): 0
- formalin test response per time bin (Figure5c), individual animals (mice [6]; Time 5 min): 47.9 and 64.7 and 87.7 and 92.8 and 88.1
- formalin test response per time bin (Figure5c), individual animals (mice [6]; Time 10 min): 0 (4×) and 6.3
- formalin test response per time bin (Figure5c), individual animals (mice [6]; Time 15 min): 0 (3×) and 1.5 and 2.3
- formalin test response per time bin (Figure5c), individual animals (mice [6]; Time 20 min): 2.9 and 0 (3×) and 3.6
- formalin test response per time bin (Figure5c), individual animals (mice [6]; Time 25 min): 1.9 and 13.6 and 0 (2×) and 21.9
- formalin test response per time bin (Figure5c), individual animals (mice [6]; Time 30 min): 0 (2×) and 85 and 92.7 and 5.3
- formalin test response per time bin (Figure5c), individual animals (mice [6]; Time 35 min): 1.8 and 59 and 0 (2×) and 91.5
- formalin test response per time bin (Figure5c), individual animals (mice [6]; Time 40 min): 2.3 and 173.3 and 5.2 and 106.7 and 40.7
- formalin test response per time bin (Figure5c), individual animals (mice [6]; Time 45 min): 3.9 and 181.8 and 5.2 and 10 and 11.7
- formalin test response per time bin (Figure5c), individual animals (mice [6]; Time 50 min): 8.3 and 48.5 and 11.2 and 3.8 and 50.2
- formalin test response per time bin (Figure5c), individual animals (mice [6]; Time 55 min): 40.3 and 35.4 and 0 (3×)
- formalin test response per time bin (Figure5c), individual animals (mice [6]; Time 60 min): 2.4 and 30.9 and 0 (3×)
- half-life at 1 µM (in vitro [7]): 41 min
- remaining at 20 min, 1 µM (in vitro [7]): 84%
- remaining at 40 min, 1 µM (in vitro [7]): 66%
- remaining at 1 h, 1 µM (in vitro [7]): 48%
- remaining at 2 h, 1 µM (in vitro [7]): 14%
- recovery at 5 h, 1 μM (in vitro [8]): 107%
- efflux ratio at 90 min, 10 μM (P-gp (human MDR1)): 1.3
- remaining at 40 min, 2 µM (in vitro [9]): 100%
- Individual animal scores (FigS11e) (mice [10]; 0.2 mg/kg, test not printed on the sheet): 289 and 48 and 256 and -101 and 11 and -145 and -65 and -179
- conditioned place preference (mice [10]; drug-paired vs vehicle-paired chamber): does not induce preference

SMILES: COC(=O)C(C)(NC(=O)c1cc(C)n(-c2cccc(C(F)(F)F)c2)n1)c1cccs1 (centres unmarked) [‘4042]
- Emax (hCB1 [11]; CHO-K1): 96%
- Cerep cAMP pEC50 (hCB1 [11]; hCB1): 11.1
